According to paper PMC2929395 (Chemistry & biology, 2010):
Where a name gives a salt, the structure may show the parent alone.

Biological target: T1, PanK3 (Homo sapiens, UniProt Q9H999)
Assay: PanK3 high-throughput screen, two-step luminescence
Type: biochemical
Conditions: not given

T1 sequence (Q9H999 whole entry): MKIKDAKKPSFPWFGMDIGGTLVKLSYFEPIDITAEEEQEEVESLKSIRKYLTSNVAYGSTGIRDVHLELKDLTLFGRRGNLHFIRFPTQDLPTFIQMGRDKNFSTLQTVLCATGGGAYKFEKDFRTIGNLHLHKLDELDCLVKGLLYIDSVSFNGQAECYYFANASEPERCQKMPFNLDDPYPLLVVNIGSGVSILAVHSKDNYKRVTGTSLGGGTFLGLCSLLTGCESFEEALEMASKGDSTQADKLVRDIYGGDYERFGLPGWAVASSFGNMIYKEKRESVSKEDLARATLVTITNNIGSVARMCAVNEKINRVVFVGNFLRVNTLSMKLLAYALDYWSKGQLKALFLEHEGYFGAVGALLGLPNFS

Molecule | IC50
CC1(C)[C@@H](O)CC[C@]2(C)[C@H]3C(=O)C=C4[C@H]5C[C@@](C)(C(=O)O)CC[C@]5(C)CC[C@@]4(C)[C@]3(C)CC[C@@H]12 [18α-glycyrrhetinic acid] | 3.6 µM
O=C1C(Cl)=C(Cl)C(=O)C(Cl)=C1Cl [Chloranil] | 5.9 µM
CN[C@@H](C)[C@H](O)c1ccccc1 [Ephedrine hydrochloride] | 1.6 µM
CC(=O)O[C@H]1C[C@@]2(C)[C@@H](C[C@@H](O)[C@H]3[C@@]4(C)CC[C@@H](O)[C@@H](C)[C@@H]4CC[C@@]32C)/C1=C(\CCC=C(C)C)C(=O)O [Fusidic acid] | 0.1 µM
Oc1c(Cl)cc(Cl)c(Cl)c1Cc1c(O)c(Cl)cc(Cl)c1Cl [Hexachlorophene] | 8.8 µM
CCc1ccc(CCOc2ccc(CC3SC(=O)NC3=O)cc2)nc1 (stereo not shown) [Pioglitazone hydrochloride] | 1 µM
Cc1c(Cl)cccc1Nc1ccccc1C(=O)O [Tolfenamic acid] | 9.2 µM

Same assay, conditions: HTS platform, 10-point concentration series in triplicate, rounded to nearest 0.1 µM

Molecule | IC50
N=C(N)SCCc1ccc(CCSC(=N)N)cc1 [1,4-PBIT dihydrobromide] | 0.4 µM
O=C1Nc2ccc(I)cc2/C1=C/c1cc(Br)c(O)c(Br)c1 [GW5074] | 9.2 µM
O=C(c1cc(O)c(O)c([N+](=O)[O-])c1)c1ccccc1F [Ro 41-0960] | 3.9 µM
N#C/C(=C\c1ccc(O)c(O)c1)C(=O)N1CCc2ccccc21 [Tyrphostin AG 528] | 3 µM
C#C[C@]1(O)CC[C@H]2[C@@H]3CCC4=Cc5nc6nc7ccccc7n6cc5C[C@]4(C)[C@H]3CC[C@@]21C [WIN 62577] | 0.7 µM

Biological target: T1, PanK3
Assay: PanK3 radiochemical
Type: biochemical
Conditions: not given

Molecule | Kinetic mechanism of PanK3 inhibition with respect to ATP | IC50 | EC50
Nc1ncnc2c1ncn2[C@@H]1O[C@H](COP(=O)(O)OP(=O)(O)O)[C@@H](O)[C@H]1O [ADP] | competitive inhibitor |  | 
Cc1cc(SCc2sc(-c3ccc(C(F)(F)F)cc3)nc2C)ccc1OCC(=O)O [GW501516] |  | ~100 µM | 
CCCCCCCCCCCCCCCC(=O)OC(CC(=O)[O-])C[N+](C)(C)C (stereo not shown) [Palmitoyl-carnitine] |  |  | 1.6 µM
CC(C)[C@H]1CC[C@H](C(=O)N[C@H](Cc2ccccc2)C(=O)O)CC1 [nateglinide] |  | > 100 µM | 
CCOc1cc(CC(=O)N[C@@H](CC(C)C)c2ccccc2N2CCCCC2)ccc1C(=O)O [repaglinade] |  | > 100 µM | 

Same assay, conditions: % of maximal activation of PanK3 with respect to the DMSO control, radioactive assay

Molecule | % Activation RA
O=C1C=CC(=O)c2ccccc21 [1,4-naphtoquinone] | 0%
CCCCCCCCCCCCCCCC(=O)OC(CC(=O)[O-])C[N+](C)(C)C (stereo not shown) [Palmitoyl-carnitine] | 120%
Phenylmercuric acid | 0%

Same assay, conditions: radioactive assay, increasing concentrations of compound

Molecule | PanK3 inhibition (in words)
CN(CCOc1ccc(C[C@H](Nc2ccccc2C(=O)c2ccccc2)C(=O)O)cc1)c1ccccn1 [GW1929] | either had no effect or very weak activity
O=C(Nc1ccccc1)c1cc([N+](=O)[O-])ccc1Cl [GW9662] | either had no effect or very weak activity
CCCCNC(=O)NS(=O)(=O)c1ccc(C)cc1 [Tolbutamide] | ineffective

Same assay, conditions: radiochemical PanK3 assay

Molecule | EC50 (µM), RA
O=C1C=CC(=O)c2ccccc21 [1,4-naphtoquinone] | Inactive
Phenylmercuric acid | Inactive

Same assay, conditions: radiochemical assay, 100 µM compound

Molecule | PanK3 inhibition by steroids
C[C@]12CC[C@H](OS(=O)(=O)O)CC1=CC[C@@H]1[C@@H]2CC[C@]2(C)C(=O)CC[C@@H]12 [Dehydroisoandrosterone sulfate] | inhibited the enzyme more potently than their non-sulfated versions
C[C@]12CC[C@H](O)CC1=CC[C@@H]1[C@@H]2CC[C@]2(C)C(=O)CC[C@@H]12 [Dehydroisoandrosterone] | decreased the enzyme activity
CC(=O)[C@H]1CC[C@H]2[C@@H]3CC=C4C[C@@H](O)CC[C@]4(C)[C@H]3CC[C@]12C [Pregnenolone] | weak PanK3 inhibitors
CC(C)CCC[C@@H](C)[C@H]1CC[C@H]2[C@@H]3CC=C4C[C@@H](O)CC[C@]4(C)[C@H]3CC[C@]12C [cholesterol] | weak PanK3 inhibitors
C[C@]12CC[C@@H]3c4ccc(OS(=O)(=O)O)cc4CC[C@H]3[C@@H]1CC[C@@H]2O [estradiol sulfate] | no effect
C[C@]12CC[C@@H]3c4ccc(OS(=O)(=O)O)cc4CC[C@H]3[C@@H]1CCC2=O [estrone sulfate] | inhibited the enzyme more potently than their non-sulfated versions
